{"source": "ChEMBL document CHEMBL4340512", "about": "“Discovery of novel triazolo[4,3-b]pyridazin-3-yl-quinoline derivatives as PIM inhibitors” (Eur J Med Chem, 2019)", "key": {"MDA-MB-231": {"test_system": "MDA-MB-231", "experiment": "Antiproliferative activity against human MDA-MB-231 assessed as combination index at 20 uM incubated for 72 hrs in presence of GI50 dose of GDC-0941 by CellTiter-Glo luminescence assay", "type": "functional"}, "SK-BR-3": {"test_system": "SK-BR-3", "experiment": "Antiproliferative activity against human SKBR3 cells incubated for 72 hrs by CellTiter-Glo luminescence assay", "type": "functional", "settings": "SK-BR-3, 72 h"}, "DU-145": {"test_system": "DU-145", "experiment": "Antiproliferative activity against human DU145 assessed as combination index at 20 uM incubated for 72 hrs in presence of GI50 dose of Lapatinib by CellTiter-Glo luminescence assay", "type": "functional"}, "MV4-11": {"test_system": "MV4-11", "experiment": "Antiproliferative activity against human MV4-11 assessed as combination index at 10 uM incubated for 72 hrs in presence of GI50 dose of GDC-0941 by CellTiter-Glo luminescence assay", "type": "functional"}, "U-87 MG": {"test_system": "U-87 MG", "experiment": "Antiproliferative activity against human U87MG assessed as combination index at 20 uM incubated for 72 hrs in presence of GI50 dose of GDC-0941 by CellTiter-Glo luminescence assay", "type": "functional, U-87MG ATCC"}}, "data": [{"compound": "COCCN1CCOc2c1cnn1c(-c3ccc4cccc(NCC5CCNCC5)c4n3)nnc21", "values": [{"measurement": "CI", "setting": "MDA-MB-231", "result": 0.0001}, {"measurement": "GI50", "setting": "SK-BR-3", "result": 21, "unit": "µM"}, {"measurement": "CI", "setting": "DU-145", "result": 0.0001}, {"measurement": "CI", "setting": "MV4-11", "result": 0.334}, {"measurement": "CI", "setting": "U-87 MG", "result": 0.008}]}]}
